In ChEMBL document CHEMBL1132774, “Tetrahydroisoquinoline derivatives containing a benzenesulfonamide moiety as potent, selective human beta3 adrenergic receptor agonists” (Bioorg Med Chem Lett, 2000) one finds EC50, IC50 and Activation data, which are given here for 13 molecules.

Test [1] deals with T1, Beta-2 adrenergic receptor (Homo sapiens, UniProt P07550). The experiment in a line: Compound was evaluated for its inhibitory activity against human beta-2 adrenergic receptor (AR). Format: functional.
Target sequence in this assay (P07550 whole entry): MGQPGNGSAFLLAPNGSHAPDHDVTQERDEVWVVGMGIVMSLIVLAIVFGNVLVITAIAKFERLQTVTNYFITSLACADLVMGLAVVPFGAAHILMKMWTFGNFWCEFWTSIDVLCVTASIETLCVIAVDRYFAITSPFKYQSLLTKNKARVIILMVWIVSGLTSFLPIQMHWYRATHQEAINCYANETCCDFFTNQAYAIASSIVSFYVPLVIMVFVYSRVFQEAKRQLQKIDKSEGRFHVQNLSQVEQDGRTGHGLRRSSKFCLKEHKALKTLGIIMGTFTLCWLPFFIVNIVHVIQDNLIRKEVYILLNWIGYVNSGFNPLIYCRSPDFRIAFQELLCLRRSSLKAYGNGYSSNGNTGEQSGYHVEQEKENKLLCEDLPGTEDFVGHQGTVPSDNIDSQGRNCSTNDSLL
Test [2] addresses T1, Beta-2 adrenergic receptor. As to the kind of experiment: Inhibitory activity against CHO cells expressing human Beta-2 adrenergic receptor with [125I]-iodocyanopindolol. It counts as cell-based.
Target sequence in this assay (P07550 whole entry): as above
Test [3] deals with T2, Beta-3 adrenergic receptor (Homo sapiens, UniProt P13945). The experiment in a line: Adenylyl cyclase activation at human beta-3 adrenergic receptor (AR). It counts as functional. Also noted: concentration or dose not given beside the values.
Target sequence in this assay (P13945 whole entry, looked up): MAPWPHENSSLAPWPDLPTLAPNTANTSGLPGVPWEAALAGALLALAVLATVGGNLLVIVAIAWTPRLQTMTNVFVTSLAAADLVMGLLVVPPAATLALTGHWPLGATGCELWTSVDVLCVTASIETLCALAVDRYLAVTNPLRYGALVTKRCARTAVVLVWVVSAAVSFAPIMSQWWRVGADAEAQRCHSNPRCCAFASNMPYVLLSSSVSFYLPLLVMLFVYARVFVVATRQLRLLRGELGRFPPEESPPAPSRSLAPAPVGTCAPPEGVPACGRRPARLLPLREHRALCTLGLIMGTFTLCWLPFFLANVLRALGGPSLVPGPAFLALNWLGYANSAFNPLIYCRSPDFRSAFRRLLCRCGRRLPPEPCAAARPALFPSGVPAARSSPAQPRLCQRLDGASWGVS
Test [4] addresses T2, Beta-3 adrenergic receptor. As to the kind of experiment: Inhibitory activity against human beta-3 adrenergic receptor (AR). It counts as functional.
Target sequence in this assay (P13945 whole entry): as the sequence (P13945 whole entry, looked up) above
For test [5], the target named is T3, Beta-1 adrenergic receptor (Homo sapiens, UniProt P08588). As to the kind of experiment: Compound was evaluated for its inhibitory activity against CHO cells expressing the cloned human beta-1 adrenergic receptor (AR) in the presence of [125I]iodocyanopindolol. Format: functional, cell-based.
Target sequence in this assay (P08588 whole entry): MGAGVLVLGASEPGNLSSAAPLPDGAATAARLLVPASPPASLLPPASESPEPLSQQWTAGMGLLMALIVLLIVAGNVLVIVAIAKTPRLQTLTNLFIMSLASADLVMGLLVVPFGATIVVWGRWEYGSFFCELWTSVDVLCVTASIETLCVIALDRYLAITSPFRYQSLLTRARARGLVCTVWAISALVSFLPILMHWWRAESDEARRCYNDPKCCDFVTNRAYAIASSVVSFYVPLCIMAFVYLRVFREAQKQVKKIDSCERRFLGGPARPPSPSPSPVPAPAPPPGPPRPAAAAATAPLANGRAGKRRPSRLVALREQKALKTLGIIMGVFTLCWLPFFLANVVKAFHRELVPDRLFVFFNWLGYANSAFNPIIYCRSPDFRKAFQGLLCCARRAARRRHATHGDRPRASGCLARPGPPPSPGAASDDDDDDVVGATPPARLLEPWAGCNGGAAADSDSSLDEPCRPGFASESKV
The target in test [6] is T3, Beta-1 adrenergic receptor. As to the kind of experiment: Compound was evaluated for its inhibitory activity against human beta-1 adrenergic receptor (AR). Format: functional.
Target sequence in this assay (P08588 whole entry): as above
The target of test [7] is T3, Beta-1 adrenergic receptor. As to the kind of experiment: (§1) Compound was evaluated for its adenylyl cyclase activation at human beta-1 adrenergic receptor (AR). Format: functional. Set-up: concentration or dose not given beside the values.
Target sequence in this assay (P08588 whole entry, looked up): as the sequence (P08588 whole entry) above
The target of test [8] is T3, Beta-1 adrenergic receptor. The experiment in a line: Compound was evaluated for its inhibitory activity against CHO cells expressing the cloned human Beta-1 adrenergic receptor in the presence of [125I]iodocyanopindolol. Format: cell-based.
Target sequence in this assay (P08588 whole entry): as above
Test [9] concerns the target T2, Beta-3 adrenergic receptor. As to the kind of experiment: Compound was evaluated for its inhibitory activity against human beta-3 adrenergic receptor (AR) at a concentration of 100 nM. Format: functional.
Target sequence in this assay (P13945 whole entry): as the sequence (P13945 whole entry, looked up) above
Test [10] has as its target T1, Beta-2 adrenergic receptor. As to the kind of experiment: Compound was evaluated for its inhibitory activity against CHO cells expressing the cloned human beta-2 adrenergic receptor (AR) in the presence of [125I]-iodocyanopindolol. It counts as functional, cell-based.
Target sequence in this assay (P07550 whole entry): as the sequence (P07550 whole entry) above
Test [11] deals with T3, Beta-1 adrenergic receptor. As to the kind of experiment: Compound was evaluated for its inhibitory activity against CHO cells expressing the cloned human beta-1 adrenergic receptor (AR) in the presence of [125I]-iodocyanopindolol. Format: cell-based.
Target sequence in this assay (P08588 whole entry): as the sequence (P08588 whole entry) above
For test [12], the target named is T1, Beta-2 adrenergic receptor. The experiment in a line: Compound was evaluated for its adenylyl cyclase activation at human beta-2 adrenergic receptor (AR). Format: functional.
Target sequence in this assay (P07550 whole entry, looked up): as the sequence (P07550 whole entry) above
The target in test [13] is T3, Beta-1 adrenergic receptor. Described as §1.
Target sequence in this assay (P08588 whole entry, looked up): as the sequence (P08588 whole entry) above

By EC50 is commonly meant the concentration at which the effect is half-maximal. As usually defined, the IC50 is the midpoint of a concentration-inhibition curve. As for `CCCCCCNC(=O)Nc1ccc(S(=O)(=O)Nc2cccc(-c3cccc(CC4NCCc5cc(O)c(O)cc54)c3)c2)cc1` (stereo not given), the EC50 in [1] is 2700 nM; in test [4], 360 nM; in test [6] it was more than 10000 nM. The IC50 in test [2] was determined as 710 nM; in [5], 530 nM. Besides, the values for the Activation in test [3] and in test [7] were 62% and 22%, respectively.
As to `CCCCCCNC(=O)Nc1ccc(S(=O)(=O)Nc2ccc(CC3NCCc4cc(O)c(O)cc43)cc2)cc1` (stereo not given), the values for the 50% inhibitory concentration (IC50) in test [8] and in [2] were 1200 nM and 200 nM, respectively. Also, the Activation in [3] was determined as 82%. For the same molecule, the concentration for a half-maximal effect (EC50) in test [4] was found to be 66 nM.
Molecule `CCCCCCNC(=O)Nc1ccc(S(=O)(=O)Nc2ccc(OCC3NCCc4cc(O)c(O)cc43)cc2)cc1` (stereo not given) displayed an EC50 in test [9] of 4 nM. In addition, the results for the IC50 in [8] and in [2] were 1000 nM and 300 nM, respectively.
Consider `CCCCCCNC(=O)Nc1ccc(S(=O)(=O)Nc2ccc(-c3ccc(CC4NCCc5cc(O)c(O)cc54)cc3)cc2)cc1` (stereo not given), for which the EC50 in [1] was found to be 340 nM; in test [4], 6 nM; in test [6] it was 1800 nM. Moreover, the Activation in test [3] came to 91%; in test [7], 44%. Besides, the IC50 amounted to 3000 nM in [5] and 3400 nM in test [10].
`COc1cc(C[C@@H]2NCCc3cc(O)c(O)cc32)cc(OC)c1OC` [TRETOQUINOL] yielded an Activation in test [3] of 92%. Also, the concentration for a half-maximal effect (EC50) in [4] amounted to 1.7 nM.
Turning to `CCCCCCNC(=O)Nc1ccc(S(=O)(=O)Nc2cccc(-c3ccc(CC4NCCc5cc(O)c(O)cc54)cc3)c2)cc1` (stereo not given), the concentration giving a half-maximal response (EC50) came out at 1300 nM in [1], 140 nM in test [4] and 970 nM in test [6]. For the same molecule, the Activation in [3] is 100%; in test [7] it was 69%. The figures for the 50% inhibitory concentration (IC50) in test [5] and in test [10] were 10000 nM and 32000 nM, respectively.
For the molecule `CCCCCCNC(=O)Nc1ccc(S(=O)(=O)Nc2ccc3cc(CC4NCCc5cc(O)c(O)cc54)ccc3c2)cc1` (stereo not given), a half-maximal effect in [9] (EC50) was put at 7 nM. Further, the figures for the half-maximal inhibitory concentration (IC50) in [8] and in [2] were 1000 nM and 300 nM, respectively.
On to `CCCCCCNC(=O)Nc1ccc(S(=O)(=O)Nc2ccc3cc(OCC4NCCc5cc(O)c(O)cc54)ccc3c2)cc1` (stereo not given), for which the results for the 50% inhibitory concentration (IC50) in [8] and in test [2] were 80000 nM and more than 100000 nM, respectively. In test [3], this molecule came in with an Activation of 72%. In addition, the EC50 in test [4] stood at 78 nM.
Take `COc1cc(-c2ccc(CC3NCCc4cc(O)c(O)cc43)cc2)cc(OC)c1OC` (stereo not given): the concentration giving a half-maximal response (EC50) came to 1500 nM in [1], 27 nM in test [4] and 6100 nM in [6]. In addition, the values for the 50% inhibitory concentration (IC50) in test [2] and in test [11] were 760 nM and 1800 nM, respectively. Further, the Activation in test [3] was 77%; in [7] it was 45%.
As to `CCCCCCNC(=O)Nc1ccc(S(=O)(=O)Nc2ccc(-c3cccc(CC4NCCc5cc(O)c(O)cc54)c3)cc2)cc1` (stereo not given), the figures for the EC50 in test [1], in [4] and in test [6] were more than 1000 nM, 600 nM and more than 1000 nM, respectively. Further, the IC50 in test [2] and in [5] was 100000 nM in each case. The Activation stood at 64% in [3], 33% in test [12] and 12% in [7].
Consider `COc1c(I)cc(CC2NCCc3nc(N)sc32)cc1I` (stereo not given), for which the IC50 in test [2] is 56 nM. In test [3], this molecule returned an Activation of 36%. The molecule further displayed a 50% effective concentration (EC50) in [4] of 800 nM.
As for `CCCCCCNC(=O)Nc1ccc(S(=O)(=O)Nc2cccc(-c3ccc(OCC4NCCc5cc(O)c(O)cc54)cc3)c2)cc1` (stereo not given), the EC50 in test [9] amounted to 10 nM. Moreover, the IC50 in test [8] came out at 6500 nM; in [2], 990 nM.
Consider `CCCCCCNC(=O)Nc1ccc(S(=O)(=O)Nc2ccc(-c3ccc(OCC4NCCc5cc(O)c(O)cc54)cc3)cc2)cc1` (stereo not given), for which the values for the IC50 in [8] and in [10] were 2000 nM and 160 nM, respectively. Further, the EC50 in [1] amounted to 580 nM; in test [4] it was 16 nM; in test [6], 2400 nM. In addition, the Activation in test [3] is 72%; in test [13] it was 23%.
